Measured values: patent US9115127B2 (AMGEN INC., priority 2010, dated 2015)

Target: T1, wild-type human ALK (cytoplasmic domain, amino acids 1058-1620, N-terminal GST fusion) (Homo sapiens, UniProt Q9UM73)
T1 construct: The cytoplasmic domain (amino acids 1058-1620) of wild-type human ALK; GST (N); made in house; host or cells: SF9 insect cells
Test: ALK Inhibition in Enzyme Assay (Lance TR-FRET kinase assay)
Type: biochemical
Summary of the method: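 Purified enzyme phosphorylated a biotinylated peptide substrate for 90 minutes at room temperature. Reactions were stopped with 20 mM EDTA in 50 mM Tris (pH 7.5), 100 mM NaCl, 0.05% BSA, 0.1% Tween-20. Phosphopeptide was detected by TR-FRET with SA-APC and Eu-W1024 anti-phosphotyrosine antibody PT66, excitation 320 nm.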

T1 sequence (Q9UM73 1058-1620): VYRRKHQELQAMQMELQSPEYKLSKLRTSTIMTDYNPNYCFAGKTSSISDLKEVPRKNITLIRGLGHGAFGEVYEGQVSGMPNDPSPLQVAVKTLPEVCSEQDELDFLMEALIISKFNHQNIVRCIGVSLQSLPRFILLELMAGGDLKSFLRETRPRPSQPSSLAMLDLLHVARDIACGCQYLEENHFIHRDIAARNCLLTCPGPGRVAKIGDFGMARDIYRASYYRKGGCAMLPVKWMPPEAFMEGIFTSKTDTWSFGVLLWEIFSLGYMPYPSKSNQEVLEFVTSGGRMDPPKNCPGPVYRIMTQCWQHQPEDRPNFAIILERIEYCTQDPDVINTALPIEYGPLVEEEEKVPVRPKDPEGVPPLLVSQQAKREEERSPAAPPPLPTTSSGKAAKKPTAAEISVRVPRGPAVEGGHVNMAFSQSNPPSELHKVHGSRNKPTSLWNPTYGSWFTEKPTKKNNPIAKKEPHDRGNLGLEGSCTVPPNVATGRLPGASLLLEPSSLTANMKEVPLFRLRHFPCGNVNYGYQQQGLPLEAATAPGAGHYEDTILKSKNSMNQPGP

IC50 | Structure (SMILES)
100 to 1000 nM | CC(C)NC(=O)[C@H]1CC[C@@H](n2/c(=N/C(=O)c3ccc(S(C)(=O)=O)cc3)[nH]c3cnc(OCCN4CCCCC4)cc32)CC1 [Example 120, (E)-N-(1-(cis-4-(Isopropylcarbamoyl)cyclohexyl)-6-(2-(piperidin-1-yl)ethoxy)-1H-imidazo[4,5-c]pyridin-2(3H)-ylidene)-4-(methylsulfonyl)benzamide]
50 to 100 nM | CC(C)NC(=O)[C@H]1CC[C@@H](n2/c(=N/C(=O)c3cccc(OC(F)(F)F)c3)[nH]c3cnc(OCCN4CCCCC4)cc32)CC1 [Example 121, (E)-N-(1-(cis-4-(Isopropylcarbamoyl)cyclohexyl)-6-(2-(piperidin-1-yl)ethoxy)-1H-imidazo[4,5-c]pyridin-2(3H)-ylidene)-3-(trifluoromethoxy)benzamide]
100 to 1000 nM | CC(C)NC(=O)[C@H]1CC[C@@H](n2/c(=N/C(=O)c3ccc(C(N)=O)cc3)[nH]c3cnc(OCCN4CCCCC4)cc32)CC1 [Example 122, (E)-N-1-(1-(cis-4-(Isopropylcarbamoyl)cyclohexyl)-6-(2-(piperidin-1-yl)ethoxy)-1H-imidazo[4,5-c]pyridin-2(3H)-ylidene)terephthalamide]
< 50 nM | N#Cc1ccc(C(=O)/N=c2\[nH]c3cnc(OCCN4CCCCC4)cc3n2[C@H]2CC[C@@H](C(=O)N3CCNCC3)CC2)cc1 [Example 123, (E)-4-Cyano-N-(1-(cis-4-(piperazine-1-carbonyl)cyclohexyl)-6-(2-(piperidin-1-yl)ethoxy)-1H-imidazo[4,5-c]pyridin-2(3H)-ylidene)benzamide]
< 50 nM | CC(C)NC(=O)[C@H]1CC[C@@H](n2/c(=N/C(=O)c3cccc(F)c3)[nH]c3cnc(N4CCC(C(C)(C)O)CC4)cc32)CC1 [Example 125, (E)-3-Fluoro-N-(6-(4-(2-hydroxypropan-2-yl)piperidin-1-yl)-1-(cis-4-(isopropylcarbamoyl)cyclohexyl)-1H-imidazo[4,5-c]pyridin-2(3H)-ylidene)benzamide]
< 50 nM | CC(C)NC(=O)[C@H]1CC[C@@H](n2/c(=N/C(=O)c3ccc(C#N)cc3)[nH]c3cnc(OCCO)cc32)CC1 [Example 126, (E)-4-Cyano-N-(6-(2-hydroxyethoxy)-1-(cis-4-(isopropylcarbamoyl)cyclohexyl)-1H-imidazo[4,5-c]pyridin-2(3H)-ylidene)benzamide]
< 50 nM | CC(C)NC(=O)[C@H]1CC[C@@H](n2/c(=N/C(=O)c3ccc(F)cc3)[nH]c3cnc(OCCO)cc32)CC1 [Example 127, (E)-4-Fluoro-N-(6-(2-hydroxyethoxy)-1-(cis-4-(isopropylcarbamoyl)cyclohexyl)-1H-imidazo[4,5-c]pyridin-2(3H)-ylidene)benzamide]
< 50 nM | CC(C)NC(=O)[C@H]1CC[C@@H](n2/c(=N/C(=O)c3ccc(F)cc3)[nH]c3cnc(OCCN4CCC(C(C)(C)O)CC4)cc32)CC1 [Example 128, (E)-4-Fluoro-N-(6-(2-(4-(2-hydroxypropan-2-yl)piperidin-1-yl)ethoxy)-1-(cis-4-(isopropylcarbamoyl)cyclohexyl)-1H-imidazo[4,5-c]pyridin-2(3H)-ylidene)benzamide]
< 50 nM | CC(C)NC(=O)[C@H]1CC[C@@H](n2/c(=N/C(=O)c3ccc(C#N)cc3)[nH]c3cnc(OCCN4CCC(C(C)(C)O)CC4)cc32)CC1 [Example 129, (E)-4-Cyano-N-(6-(2-(4-(2-hydroxypropan-2-yl)piperidin-1-yl)ethoxy)-1-(cis-4-(isopropylcarbamoyl)cyclohexyl)-1H-imidazo[4,5-c]pyridin-2(3H)-ylidene)benzamide]
100 to 1000 nM | C=CCNS(=O)(=O)c1cccc(C(=O)/N=c2\[nH]c3cnc(OCCN4CCCCC4)cc3n2[C@H]2CC[C@H](C(=O)NC(C)C)CC2)c1 [Example 131, (E)-3-(N-Allylsulfamoyl)-N-(1-(trans-4-(isopropylcarbamoyl)cyclohexyl)-6-(2-(piperidin-1-yl)ethoxy)-1H-imidazo[4,5-c]pyridin-2(3H)-ylidene)benzamide]
100 to 1000 nM | CC(C)NC(=O)[C@H]1CC[C@@H](n2/c(=N/C(=O)NC3CCCCC3)[nH]c3cnc(OCCN4CCCCC4)cc32)CC1 [Example 132, cis-4-((E)-2-(Cyclohexylcarbamoylimino)-6-(2-(piperidin-1-yl)ethoxy)-2,3-dihydro-1H-imidazo[4,5-c]pyridin-1-yl)-N-isopropylcyclohexanecarboxamide]
100 to 1000 nM | CC(C)NC(=O)[C@H]1CC[C@@H](n2/c(=N/C(=O)N3CCOCC3)[nH]c3cnc(OCCN4CCCCC4)cc32)CC1 [Example 133, (E)-N-(1-(cis-4-(Isopropylcarbamoyl)cyclohexyl)-6-(2-(piperidin-1-yl)ethoxy)-1H-imidazo[4,5-c]pyridin-2(3H)-ylidene)morpholine-4-carboxamide]
50 to 100 nM | CC(C)NC(=O)[C@H]1CC[C@@H](n2/c(=N/C(=O)N3CCCC3)[nH]c3cnc(OCCN4CCCCC4)cc32)CC1 [Example 134, (E)-N-(1-(cis-4-(Isopropylcarbamoyl)cyclohexyl)-6-(2-(piperidin-1-yl)ethoxy)-1H-imidazo[4,5-c]pyridin-2(3H)-ylidene)pyrrolidine-1-carboxamide]
< 50 nM | NC(=O)[C@H]1CC[C@@H](n2/c(=N/C(=O)c3ccc(F)cc3)[nH]c3cnc(OCCN4CCCCC4)cc32)CC1 [Example 135, (E)-N-(1-(cis-4-Carbamoylcyclohexyl)-6-(2-(piperidin-1-yl)ethoxy)-1H-imidazo[4,5-c]pyridin-2(3H)-ylidene)-4-fluorobenzamide]
1000 to 5000 nM | CC(C)NC(=O)[C@H]1CC[C@@H](n2c(N)nc3ccc(CN4CCC(C(C)(C)O)CC4)cc32)CC1 [Example 136, cis-4-(2-Amino-6-((4-(2-hydroxypropan-2-yl)piperidin-1-yl)methyl)-1H-benzo[d]imidazol-1-yl)-N-isopropylcyclohexanecarboxamide]
< 50 nM | CC(C)NC(=O)[C@H]1CC[C@@H](n2/c(=N/C(=O)c3cccc(C(F)(F)F)c3)[nH]c3ccc(CN4CCC(C(C)(C)O)CC4)cc32)CC1 [Example 147, (E)-N-(6-((4-(2-Hydroxypropan-2-yl)piperidin-1-yl)methyl)-1-(cis-4-(isopropylcarbamoyl)cyclohexyl)-1H-benzo[d]imidazol-2(3H)-ylidene)-3-(trifluoromethyl)benzamide]
< 50 nM | CC(C)NC(=O)[C@H]1CC[C@@H](n2/c(=N/C(=O)c3ccc(F)c(C(F)(F)F)c3)[nH]c3ccc(CN4CCC(C(C)(C)O)CC4)cc32)CC1 [Example 148, (E)-4-Fluoro-N-(6-((4-(2-hydroxypropan-2-yl)piperidin-1-yl)methyl)-1-(cis-4-(isopropylcarbamoyl)cyclohexyl)-1H-benzo[d]imidazol-2(3H)-ylidene)-3-(trifluoromethyl)benzamide]
< 50 nM | COc1ccc(C(=O)/N=c2\[nH]c3ccc(CN4CCC(C(C)(C)O)CC4)cc3n2[C@H]2CC[C@@H](C(=O)NC(C)C)CC2)cc1 [Example 151, (E)-N-(6-((4-(2-Hydroxypropan-2-yl)piperidin-1-yl)methyl)-1-(cis-4-(isopropylcarbamoyl)cyclohexyl)-1H-benzo[d]imidazol-2(3H)-ylidene)-4-methoxybenzamide]
< 50 nM | COc1ccc(COc2ccc3nc(NC(=O)c4ccc(F)cc4)n([C@H]4CC[C@@H](C(=O)NC(C)C)CC4)c3c2)cc1 [Example 153, 4-Fluoro-N-(6-((4-methoxybenzyl)oxy)-1-(cis-4-((1-methylethyl)carbamoyl)cyclohexyl)-1H-benzimidazol-2-yl)benzamide]
< 50 nM | CC(C)NC(=O)[C@H]1CC[C@@H](n2/c(=N/C(=O)c3ccc(F)cc3)[nH]c3ccc(O)cc32)CC1 [Example 154, 4-Fluoro-N-(6-hydroxy-1-(cis-4-(isopropylcarbamoyl)cyclohexyl)-1H-benzo[d]imidazol-2-yl)benzamide]
< 50 nM | CC(C)NC(=O)[C@H]1CC[C@@H](n2/c(=N/C(=O)c3ccc(F)cc3)[nH]c3ccc(OCCN4CCCCC4)cc32)CC1 [Example 155, (E)-4-Fluoro-N-(1-(cis-4-(isopropylcarbamoyl)cyclohexyl)-6-(2-(piperidin-1-yl)ethoxy)-1H-benzo[d]imidazol-2(3H)-ylidene)benzamide]
< 50 nM | CC(C)NC(=O)[C@H]1CC[C@@H](n2/c(=N/C(=O)c3ccc(F)cc3)[nH]c3cnccc32)CC1 [Example 156, (E)-4-Fluoro-N-(1-(cis-4-(isopropylcarbamoyl)cyclohexyl)-1H-imidazo[4,5-c]pyridin-2(3H)-ylidene)benzamide]
< 50 nM | COc1cc2c(cn1)[nH]/c(=N\C(=O)c1ccc(F)cc1)n2[C@H]1CC[C@@H](C(=O)NC(C)C)CC1 [Example 157, (E)-4-Fluoro-N-(1-(cis-4-(isopropylcarbamoyl)cyclohexyl)-6-methoxy-1H-imidazo[4,5-c]pyridin-2(3H)-ylidene)benzamide]
< 50 nM | COCCOc1cc2c(cn1)[nH]/c(=N\C(=O)c1ccc(F)cc1)n2[C@H]1CC[C@@H](C(=O)NC(C)C)CC1 [Example 159, (E)-4-Fluoro-N-(1-(cis-4-(isopropylcarbamoyl)cyclohexyl)-6-(2-methoxyethoxy)-1H-imidazo[4,5-c]pyridin-2(3H)-ylidene)benzamide]
< 50 nM | CC(C)NC(=O)[C@H]1CC[C@@H](n2/c(=N/C(=O)c3ccc(F)cc3)[nH]c3cnc(Cl)cc32)CC1 [Example 160, (E)-N-(6-Chloro-1-(cis-4-(isopropylcarbamoyl)cyclohexyl)-1H-imidazo[4,5-c]pyridin-2(3H)-ylidene)-4-fluorobenzamide]
< 50 nM | CC(C)NC(=O)[C@H]1CC[C@@H](n2/c(=N/C(=O)c3ccc(F)cc3)[nH]c3ccc(OCCN4CCOCC4)cc32)CC1 [Example 161, (E)-4-Fluoro-N-(1-(cis-4-(isopropylcarbamoyl)cyclohexyl)-6-(2-morpholinoethoxy)-1H-benzo[d]imidazol-2(3H)-ylidene)benzamide]
